For 10 compounds, inhibition and IC50 results are on record in US10899737B2, “Piperazine carbamates and methods of making and using same” (Lundbeck La Jolla Research Center, Inc., priority 2016, dated 2021).

Assay [1] addresses T1, MAGL (Homo sapiens, UniProt Q99685).
T1 construct: Proteomes (human prefrontal cortex or cell membrane fractions); from tissue
T1 sequence (Q99685 1-303): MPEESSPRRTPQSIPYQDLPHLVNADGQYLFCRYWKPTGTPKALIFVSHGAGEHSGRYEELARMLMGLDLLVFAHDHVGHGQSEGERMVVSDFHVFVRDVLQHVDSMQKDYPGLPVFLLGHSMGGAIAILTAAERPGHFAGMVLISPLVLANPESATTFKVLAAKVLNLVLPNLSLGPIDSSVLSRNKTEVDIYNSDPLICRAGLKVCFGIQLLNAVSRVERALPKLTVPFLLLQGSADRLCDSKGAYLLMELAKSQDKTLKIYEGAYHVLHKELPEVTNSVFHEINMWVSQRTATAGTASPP
Nature of the assay: In vitro competitive activity-based protein profiling (human), MAGL. The format is biochemical. The following applies: for inhibition at 1 µM: 1 μM inhibitor, human proteome, 30 min preincubation at 37° C, read-out: MAGL % inh. 1 μM (human); for IC50: human PC3. The procedure, abridged:
(§1)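 Human prefrontal cortex or cell membrane proteomes (1.0-2.0 mg/mL protein) preincubated 30 min at 37° C with inhibitor, then labeled 30 min RT with FP-Rh or JW912 probe. After SDS-PAGE, activity taken from fluorescent band intensity for each enzyme.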

For assay [2], the target named is T2, ABHD6 (Homo sapiens, UniProt Q9BV23).
T2 construct: Proteomes (human prefrontal cortex or cell membrane fractions); endogenous in cells; human prefrontal cortex
T2 sequence (Q9BV23 1-337): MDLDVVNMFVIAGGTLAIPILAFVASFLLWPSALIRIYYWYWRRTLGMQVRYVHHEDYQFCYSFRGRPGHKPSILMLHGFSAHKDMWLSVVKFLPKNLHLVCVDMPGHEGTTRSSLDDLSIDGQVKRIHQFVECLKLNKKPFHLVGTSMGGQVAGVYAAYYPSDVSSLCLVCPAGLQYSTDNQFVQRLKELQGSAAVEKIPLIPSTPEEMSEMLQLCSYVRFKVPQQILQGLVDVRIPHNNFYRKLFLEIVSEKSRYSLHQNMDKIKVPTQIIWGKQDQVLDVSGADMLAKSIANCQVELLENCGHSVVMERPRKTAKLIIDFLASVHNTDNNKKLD
Nature of the assay: In vitro competitive activity-based protein profiling (human), ABHD6. The format is biochemical. The note with it: human PC3. The procedure, abridged:
as §1

Assay [3] has as its target T3, MAGL (Mus musculus, UniProt O35678).
T3 construct: Proteomes (mouse brain membrane fraction or cell lysates); from tissue; host or cells: mouse brain membrane fraction or cell lysates
T3 sequence (O35678 1-303): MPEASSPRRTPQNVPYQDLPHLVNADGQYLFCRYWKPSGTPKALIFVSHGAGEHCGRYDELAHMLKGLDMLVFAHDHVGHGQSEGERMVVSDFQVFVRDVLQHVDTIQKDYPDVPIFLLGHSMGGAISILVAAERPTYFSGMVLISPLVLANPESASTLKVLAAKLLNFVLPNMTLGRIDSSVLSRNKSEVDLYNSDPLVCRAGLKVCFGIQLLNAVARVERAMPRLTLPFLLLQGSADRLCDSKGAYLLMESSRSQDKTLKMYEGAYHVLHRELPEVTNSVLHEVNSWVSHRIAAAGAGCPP
Kind of assay: In vitro competitive activity-based protein profiling (mouse), MAGL. The format is biochemical. The following applies: for inhibition at 1 µM: 1 μM inhibitor, mouse brain membrane fraction or cell lysates, read-out: MAGL % inh. 1 μM (mouse); for IC50: mouse proteome. The procedure, abridged: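 Mouse brain membrane fraction or cell lysate proteomes (50 μL, 1.0 mg/mL total protein) were preincubated with inhibitors at varying concentrations for 30 min at 37° C. FP-Rh (1.0 μL, 50 μM in DMSO) was then added for a further 30 min at 37° C. Samples were quenched with 4× SDS loading buffer and resolved by SDS-PAGE. MAGL activity was quantified from fluorescent gel band intensity using ImageJ 1.49 k.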

Assay [4] deals with T3, MAGL. Kind of assay: Mouse brain proteomes from inhibitor treated mice, MAGL inhibition. The format is in vivo. The note with it: 5 mg/kg oral gavage, C57Bl/6J mouse brain, 4 h following administration; read-out: MAGL % inh. 5 mg/kg (mouse). As for the experimental part: Preparation of Mouse Brain Proteomes from Inhibitor Treated Mice.
Inhibitors were administered to wild-type C57Bl/6J by oral gavage in a vehicle of polyethylene glycol. Each animal was sacrificed 4 h following administration and brain proteomes were prepared and analyzed according to previously established methods (See Niphakis, M. J., et al. (2011) ACS Chem. Neurosci. and Long, J. Z., et al. Nat. Chem. Biol. 5:37-44).

Assay [5] deals with T4, ABHD6 (Mus musculus, UniProt Q8R2Y0).
T4 construct: Proteomes (mouse brain membrane fraction or cell lysates); from tissue; host or cells: mouse brain membrane fraction or cell lysates
T4 sequence (Q8R2Y0 1-336): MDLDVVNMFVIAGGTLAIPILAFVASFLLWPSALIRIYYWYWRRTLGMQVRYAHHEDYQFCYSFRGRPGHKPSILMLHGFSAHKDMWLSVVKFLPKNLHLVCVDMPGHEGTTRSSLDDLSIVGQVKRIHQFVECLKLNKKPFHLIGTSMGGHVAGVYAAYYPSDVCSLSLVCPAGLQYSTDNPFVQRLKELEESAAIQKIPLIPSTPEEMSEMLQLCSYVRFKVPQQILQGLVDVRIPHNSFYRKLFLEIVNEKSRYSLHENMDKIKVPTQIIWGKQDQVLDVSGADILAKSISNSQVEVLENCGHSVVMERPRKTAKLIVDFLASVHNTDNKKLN
Kind of assay: In vitro competitive activity-based protein profiling (mouse), ABHD6. The format is biochemical. The following applies: 1 μM inhibitor, mouse brain membrane fraction or cell lysates; read-out: ABHD6 % inh. 1 μM (mouse). The procedure, abridged: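 Mouse brain membrane proteome or cell lysate (1.0 mg/mL protein) preincubated 30 min at 37 °C with inhibitor, then labelled 30 min at 37 °C with FP-rhodamine probe. Remaining MAGL and ABHD6 activity quantified by in-gel fluorescence band intensity after SDS-PAGE; values are % inhibition at 1 μM.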

Structures are written as SMILES. Some results are limits rather than exact numbers.

What is called IC50 is the concentration at which inhibition is half-maximal.

For `CC1(C(=O)O)CCCN(c2cc(C(F)(F)F)ccc2CN2CCN(C(=O)OC(C(F)(F)F)C(F)(F)F)CC2)C1` (centres unmarked) [Example 54, 1-(2-((4-(((1,1,1,3,3,3-hexafluoropropan-2-yl)oxy)carbonyl)piperazin-1-yl)methyl)-5-(trifluoromethyl)phenyl)-3-methylpiperidine-3-carboxylic acid], the values for the inhibition at 1 µM on MAGL [1], at MAGL [3] and on ABHD6 [5] were ≥ 75%, ≥ 75% and 50 to 75%, respectively. Also, the IC50 was ≤ 0.1 µM on MAGL [1] and 1 to 10 µM at ABHD6 [2]. In addition, the inhibition at 5 mg/kg at MAGL [4] was ≥ 75%.

Take `CC1(C(=O)O)CCN(c2cc(C(F)(F)F)ccc2CN2CCN(C(=O)OC(C(F)(F)F)C(F)(F)F)CC2)C1` (centres unmarked) [Example 55, 1-{2-[(4-{[(1,1,1,3,3,3-hexafluoropropan-2-yl)oxy]carbonyl}piperazin-1-yl)methyl]-5-(trifluoromethyl)phenyl}-3-methylpyrrolidin-3-carboxylic acid]: the inhibition at 1 µM on MAGL [1], on MAGL [3] and on ABHD6 [5] was ≥ 75% throughout. In addition, the results for the IC50 on MAGL [1] and at ABHD6 [2] were ≤ 0.1 µM and 0.1 to 1 µM, respectively. The inhibition at 5 mg/kg at MAGL [4] was 25 to 50%.

As to `CC1(C(=O)O)CN(c2cc(C(F)(F)F)ccc2CN2CCN(C(=O)OC(C(F)(F)F)C(F)(F)F)CC2)CCO1` (centres unmarked) [Example 57, 4-{2-[(4-{[(1,1,1,3,3,3-hexafluoropropan-2-yl)oxy]carbonyl}piperazin-1-yl)methyl]-5-(trifluoromethyl)phenyl}-2-methylmorpholine-2-carboxylic acid], the inhibition at 1 µM is ≥ 75% on MAGL [1], ≥ 75% at MAGL [3] and 0 to 25% at ABHD6 [5]. The figures for the IC50 on MAGL [1], on ABHD6 [2] and on MAGL [3] were ≤ 0.1 µM, 1 to 10 µM and ≤ 0.1 µM, respectively. In addition, the inhibition at 5 mg/kg on MAGL [4] is 0 to 25%.

For the compound `Cc1ccc(CN2CCN(C(=O)OC(C(F)(F)F)C(F)(F)F)CC2)c(N2CCC(C(=O)O)CC2)c1F` [Example 59, 1-(2-fluoro-6-((4-(((1,1,1,3,3,3-hexafluoropropan-2-yl)oxy)carbonyl)piperazin-1-yl)methyl)-3-methylphenyl)piperidine-4-carboxylic acid], the inhibition at 1 µM at MAGL [1], at MAGL [3] and on ABHD6 [5] was ≥ 75% each time. Also, the IC50 is ≤ 0.1 µM on MAGL [1] and 1 to 10 µM on ABHD6 [2]. Further, the inhibition at 5 mg/kg on MAGL [4] is ≥ 75%.

Take `O=C(O)C1CCN(c2c(CN3CCN(C(=O)OC(C(F)(F)F)C(F)(F)F)CC3)ccc(Cl)c2F)CC1` [Example 62, 1-(3-chloro-2-fluoro-6-((4-(((1,1,1,3,3,3-hexafluoropropan-2-yl)oxy)carbonyl)piperazin-1-yl)methyl)phenyl)piperidine-4-carboxylic acid]: the values for the inhibition at 1 µM at MAGL [1], on MAGL [3] and at ABHD6 [5] were ≥ 75%, ≥ 75% and 50 to 75%, respectively. For the same compound, the half-maximal inhibitory concentration (IC50) at MAGL [1] was ≤ 0.1 µM; on ABHD6 [2], 1 to 10 µM. Moreover, the inhibition at 5 mg/kg on MAGL [4] is ≥ 75%.

In the case of `CC1(C(=O)O)CCN(c2cc(Cl)ccc2CN2CCN(C(=O)OC(C(F)(F)F)C(F)(F)F)CC2)CC1` [Example 63, 1-(5-chloro-2-((4-(((1,1,1,3,3,3-hexafluoropropan-2-yl)oxy)carbonyl)piperazin-1-yl)methyl)phenyl)-4-methylpiperidine-4-carboxylic acid], the inhibition at 1 µM was ≥ 75% at MAGL [1], ≥ 75% at MAGL [3] and 50 to 75% at ABHD6 [5]. The values for the IC50 at MAGL [1] and on ABHD6 [2] were ≤ 0.1 µM and 0.1 to 1 µM, respectively. Moreover, the inhibition at 5 mg/kg on MAGL [4] is ≥ 75%.

For `O=C(O)[C@@H]1CCCN1C1CCN(c2cc(C(F)(F)F)ccc2CN2CCN(C(=O)OC(C(F)(F)F)C(F)(F)F)CC2)CC1` [Example 64, (1-(2-((4-(((1,1,1,3,3,3-hexafluoropropan-2-yl)oxy)carbonyl)piperazin-1-yl)methyl)-5-(trifluoromethyl)phenyl)piperidin-4-yl)proline], the inhibition at 1 µM was ≥ 75% at MAGL [1], ≥ 75% on MAGL [3] and 50 to 75% at ABHD6 [5]. Besides, the results for the IC50 on MAGL [1] and at ABHD6 [2] were ≤ 0.1 µM and 1 to 10 µM, respectively. Besides, on MAGL [4], the inhibition at 5 mg/kg is 0 to 25%.

`O=C(O)C1CCN(c2cc(OC(F)(F)F)ccc2CN2CCN(C(=O)OC(C(F)(F)F)C(F)(F)F)CC2)CC1` [Example 67, 1-(2-((4-(((1,1,1,3,3,3-hexafluoropropan-2-yl)oxy)carbonyl)piperazin-1-yl)methyl)-5-(trifluoromethoxy)phenyl)piperidine-4-carboxylic acid]: the inhibition at 1 µM at MAGL [1] is ≥ 75%; on MAGL [3], ≥ 75%; at ABHD6 [5], 50 to 75%. For the same compound, the half-maximal inhibitory concentration (IC50) was ≤ 0.1 µM at MAGL [1], 1 to 10 µM at ABHD6 [2] and ≤ 0.1 µM on MAGL [3]. Besides, at MAGL [4], the inhibition at 5 mg/kg was ≥ 75%.

As for `O=C(O)[C@@H]1CCCN(c2cc(C(F)(F)F)ccc2CN2CCN(C(=O)OC(C(F)(F)F)C(F)(F)F)CC2)C1` [Example 70, (R)-1-(2-((4-(((1,1,1,3,3,3-hexafluoropropan-2-yl)oxy)carbonyl)piperazin-1-yl)methyl)-5-(trifluoromethyl)phenyl)piperidine-3-carboxylic acid], the inhibition at 1 µM was ≥ 75% on MAGL [1], ≥ 75% at MAGL [3] and 0 to 25% at ABHD6 [5]. The IC50 was ≤ 0.1 µM on MAGL [1] and 1 to 10 µM at ABHD6 [2]. For the same compound, at MAGL [4], the inhibition at 5 mg/kg was ≥ 75%.

Turning to `O=C(O)C1CCN(c2cc(S(F)(F)(F)(F)F)ccc2CN2CCN(C(=O)OC(C(F)(F)F)C(F)(F)F)CC2)CC1` [Example 78, 1-(2-((4-(((1,1,1,3,3,3-hexafluoropropan-2-yl)oxy)carbonyl)piperazin-1-yl)methyl)-5-(pentafluoro-16-sulfaneyl)phenyl)piperidine-4-carboxylic acid], the inhibition at 1 µM at MAGL [1], at MAGL [3] and on ABHD6 [5] was ≥ 75% throughout. In addition, the half-maximal inhibitory concentration (IC50) on MAGL [1] was ≤ 0.1 µM; on ABHD6 [2] it was 1 to 10 µM. Also, at MAGL [4], the inhibition at 5 mg/kg was ≥ 75%.
